Results taken from patent US9504659B2 (priority 2006, dated 2016).

Experiment: ER804057 content of the emulsion by extraction and HPLC-UV after storage
Format: physicochemical
Details: emulsion PIT-ER804057 at 5%; for ER804057 content in the emulsion: theoretical concentration 40 μg/ml
Description: The stability of this thermoreversible emulsion was evaluated after storage for 6 months at a temperature of +4° C. by verifying the ER804057 content in the emulsion and by checking the size distribution of oil droplets in the emulsion. To assay ER804057, a selective extraction of ER804057 from the emulsion was carried out, followed by analysis by high performance liquid chromatography (HPLC) coupled to UV detector equipped with […]. The ER804057 content of the emulsion to be verified was determined using a standard range containing between 5 and 25 μg/ml of ER804057. In order to compensate for the variations in extraction yields, a constant amount of an internal standard, the chemical structure of which is very similar to that of ER804057, was introduced into each sample to be assayed (including into the samples of the standard range). This internal standard was the chemical molecule called ER803022.
The sample of PIT-ER804057 at 5% to be assayed was prepared by taking an aliquot of the emulsion PIT-ER804057 at 5%, to which 10 μg of internal standard was added, and which was diluted in water for injectable preparation.
The extraction of ER804057 from the samples of the standard range or from the samples of PIT-ER804057 at 5% was carried out in the following way: The sample was solubilized with CM2:1. The two-phase system obtained was composed of a chloroform phase containing predominantly ER804057 and an aqueous phase containing the other compounds of the emulsion. The chloroform phase was recovered and evaporated under hot conditions under a stream of nitrogen. The dry extract obtained was taken up and again solubilized in the CM2:1 mixture. […] The dry extract derived from each sample was conserved at −20° C. before being analyzed by HPLC.
The dry extract of each sample was taken up with 50 μl of CM4:1, and then diluted to ½ in methanol, then to 1/10th in a mixture of 30% acetonitrile-water for injectable preparation, 20 μl of the dilution were injected into a liquid chromatography apparatus (HPLC Merck Hitachi, serie 7000) comprising a Waters XTerra™ RP8 column pre-equilibrated in a mobile phase consisting of a mixture of 80% of phase A (water for injectable preparation/ethanol 50/50 containing 2% H3PO4) and 20% of phase B (ethanol containing 2% H3PO4), ER804057 and the internal standard were eluted using a gradient of ethanol containing 2% H3PO4. At the outlet of the HPLC, the eluate meets the UV detector and the molecules are detected at the wavelength of 215 nm. […] Once the curve was established, the amount of ER804057 present in the emulsion PIT-ER804057 at 5% was then determined by measuring the ratio of the surface areas of the ER804057/internal standard peaks.

Structure (SMILES): CCCCCCCCCCCC(=O)CC(=O)N[C@H](COCC[C@@H](CCCCCCC)OC(=O)CCCCCCCCCCC)COP(=O)(O)OCCNC(=O)NCCOP(=O)(O)OC[C@@H](COCC[C@@H](CCCCCCC)OC(=O)CCCCCCCCCCC)NC(=O)CC(=O)CCCCCCCCCCC [ER804057, dodecanoic acid (1R,6R,22R,27R)-1,27-diheptyl-9,19-dihydroxy-9,19-dioxido-14-oxo-6,22-bis[(1,3-dioxotetradecyl)amino]-4,8,10,18,20,24-hexaoxa-13,15-diaza-9,19-diphosphaheptacosane-1,27-diyl ester]
- ER804057 content in the emulsion (1 month at +4° C.): 38 µg/mL
- ER804057 content in the emulsion (3 months at +4° C.): 37 µg/mL
- change of ER804057 concentration in the emulsion on storage (6 months at +4° C.): has not substantially varied
- ER804057 content in the emulsion (6 months at +4° C.): 42 µg/mL
